Test results as given in PMC3914206.

Tests used:
panel of 442 kinases [1] = target: T1, panel of 442 kinases (Homo sapiens, UniProt P30530); type: binding; details: Compound Concentration 10 µM
T1 construct: purchased KINOMEscan
T1 sequence (P30530 26-894): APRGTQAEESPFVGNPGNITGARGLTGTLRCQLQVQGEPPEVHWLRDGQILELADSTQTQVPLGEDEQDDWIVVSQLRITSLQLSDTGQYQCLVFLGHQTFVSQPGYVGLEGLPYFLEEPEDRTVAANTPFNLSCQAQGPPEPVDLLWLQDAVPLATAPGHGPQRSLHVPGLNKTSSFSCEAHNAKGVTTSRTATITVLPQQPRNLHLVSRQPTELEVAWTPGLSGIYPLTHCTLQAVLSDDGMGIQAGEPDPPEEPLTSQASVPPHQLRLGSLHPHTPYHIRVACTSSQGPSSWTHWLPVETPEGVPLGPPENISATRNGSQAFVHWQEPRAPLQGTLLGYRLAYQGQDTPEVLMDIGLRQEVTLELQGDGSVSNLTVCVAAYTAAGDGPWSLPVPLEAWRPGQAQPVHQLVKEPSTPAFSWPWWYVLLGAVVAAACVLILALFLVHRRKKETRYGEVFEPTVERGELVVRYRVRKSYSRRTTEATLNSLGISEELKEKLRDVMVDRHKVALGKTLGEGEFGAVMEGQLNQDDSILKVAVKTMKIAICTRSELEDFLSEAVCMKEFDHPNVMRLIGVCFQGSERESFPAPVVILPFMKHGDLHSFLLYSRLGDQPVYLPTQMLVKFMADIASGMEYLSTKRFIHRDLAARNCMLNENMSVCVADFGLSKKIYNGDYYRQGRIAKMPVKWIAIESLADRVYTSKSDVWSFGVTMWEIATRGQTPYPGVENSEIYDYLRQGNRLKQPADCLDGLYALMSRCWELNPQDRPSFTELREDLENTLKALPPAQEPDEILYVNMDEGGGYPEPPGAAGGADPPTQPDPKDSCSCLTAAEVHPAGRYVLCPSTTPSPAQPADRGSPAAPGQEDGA
From the text: (§1) We assessed the selectivity of members of this scaffold using the KINOMEscan methodology across a near comprehensive panel of 442 kinases [[18,27]].

panel of 442 kinases [2] = target: T2, panel of 442 kinases (Homo sapiens, UniProt Q96BR1); type: binding; details: kinase SGK3; compound concentration 10 µM
T2 construct: purchased KINOMEscan
T2 sequence (Q96BR1 1-496): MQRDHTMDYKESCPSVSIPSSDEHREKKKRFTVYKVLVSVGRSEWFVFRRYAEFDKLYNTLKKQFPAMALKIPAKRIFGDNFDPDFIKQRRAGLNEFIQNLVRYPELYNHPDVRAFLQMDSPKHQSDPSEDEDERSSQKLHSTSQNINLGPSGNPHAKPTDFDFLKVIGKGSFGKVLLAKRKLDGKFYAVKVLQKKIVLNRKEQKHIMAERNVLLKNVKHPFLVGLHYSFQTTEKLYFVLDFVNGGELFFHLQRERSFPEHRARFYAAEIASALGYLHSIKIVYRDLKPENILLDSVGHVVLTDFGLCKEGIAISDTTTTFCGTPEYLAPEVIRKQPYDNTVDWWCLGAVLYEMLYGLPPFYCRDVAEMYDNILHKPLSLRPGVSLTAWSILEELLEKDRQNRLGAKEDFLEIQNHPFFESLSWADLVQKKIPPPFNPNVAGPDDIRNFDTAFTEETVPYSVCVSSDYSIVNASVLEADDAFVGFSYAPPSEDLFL
From the text: as §1

SMILES | KINOMEscan: AXL (panel of 442 kinases [1]) | % Ctrl, SGK3 (panel of 442 kinases [2])
CCOc1cc(C(=O)N2CCC(N3CCN(C)CC3)CC2)ccc1Nc1ncc2c(n1)N(C1CCCC1)c1ccccc1C(=O)N2C [Compound 26] | 93 | 83 % Ctrl
COc1cc(C(=O)N2CCC(N3CCN(C)CC3)CC2)ccc1Nc1ncc2c(n1)N(C1CCCC1)c1ccccc1C(=O)N2C [Compound 25, 11-cyclopentyl-2-((2-methoxy-4-(4-(4-methylpiperazin-1-yl)piperidine-1-carbonyl)phenyl)amino)-5-methyl-5H-benzo[e]pyrimido[5,4-b][1,4]diazepin-6(11H)-one] | 100 | 100 % Ctrl
COc1cc(C(=O)N2CCC(N3CCN(C)CC3)CC2)ccc1Nc1ncc2c(n1)N1CCc3cccc(c31)C(=O)N2C [Compound 24] |  | 100 % Ctrl
COc1cc(C(=O)N2CCC(N3CCN(C)CC3)CC2)ccc1Nc1ncc2c(n1)N(C)c1ccccc1C(=O)N2C [15 (LRRK2-IN-1)] | 100 | 95 % Ctrl
